Series [1] has as its system B. burgdorferi (growing, strain B31). Kind of series: MIC determination, standard microdilution method. The class given is cell-based, Borrelia burgdorferi. The settings on record: MIC test.
For series [2], the system named is stationary phase B. burgdorferi persisters (strain B31). The series is described as follows: SYBR Green I/PI viability assay (plate reader), FDA-approved drug library screen. Conditions: for Ratio of Green/Red fluorescence, Primary screening / Ratio of Green/Red fluorescence, Rescreening (first column) / Ratio of Green/Red fluorescence, Rescreening (second column): 7 days, stationary phase; for viability at 50 µM: Borreliella burgdorferi, 168 h, read-out: Residual viable cells (regression equation, SYBR Green I/PI assay).

The test system is the same in series [3]. The series is described as follows: epifluorescence microscope counting after SYBR Green I/PI staining, FDA drug screen. The settings on record: for viability at 50 µM: Borreliella burgdorferi, 168 h, read-out: Residual viable cells (epifluorescence microscope counting).
For series [4], the system named is log phase and stationary phase B. burgdorferi culture. The series is described as follows: Antibiotic exposure assay, SYBR Green I/PI (drugs alone and combinations). Conditions: Borreliella burgdorferi, 168 h. On the procedure:
To qualitatively determine the effect of antibiotics, 10 μL of each compound from the pre-diluted plate or pre-diluted stock was added to stationary phase B. burgdorferi culture in the 96-well plate. The final volume per well was adjusted to 100 μL at a concentration of 10 μg/mL for each antibiotic. Plates were sealed and placed in a 33° C. incubator for 7 days. The SYBR Green I/PI viability assay was used to assess the live and dead cells after antibiotic exposure as described (Feng, Wang, Shi, et al., 2014). Briefly, 10 μL of SYBR Green I (10,000×stock, Invitrogen) was mixed with 30 μL propidium iodide (PI, 20 mM) into 1.0 mL of sterile dH2O. Then, 10 μL of staining mixture was added to each well and mixed thoroughly. The plates were incubated at room temperature in the dark for 15 minutes followed by plate reading at excitation wavelength at 485 nm and the fluorescence intensity at 535 nm (green emission) and 635 nm (red emission) in microplate reader (HTS 7000 plus Bio Assay Reader, PerkinElmer Inc., USA). With least-square fitting analysis, the regression equation and regression curve of the relationship between percentage of live bacteria and green/red fluorescence ratios was obtained. The regression equation was used to calculate the percentage of live cells in each well of the 96-well plate.
To qualitatively determine the effect of antibiotics, 10 μL of each compound (final concentration 50 μM) from the pre-diluted plate or pre-diluted stock was added to round body form or stationary phase B. burgdorferi culture in the 96-well plate. The final volume per well was adjusted to 100 μL. Plates were sealed and placed in a 33° C. incubator for 7 days. The SYBR Green I/PI viability assay was used to assess the live and dead cells after antibiotic exposure as described (Feng, Wang, Shi, et al., 2014). Briefly, 10 μL of SYBR Green I (10,000×stock, Invitrogen) was mixed with 30 μL propidium iodide (PI, 20 mM, Sigma-Aldrich) into 1.0 mL of sterile dH2O. Then, 10 μL staining mixture was added to each well and mixed thoroughly. The plates were incubated at room temperature in the dark for 15 minutes followed by plate reading at excitation wavelength at 485 nm and the fluorescence intensity at 535 nm (green emission) and 635 nm (red emission) in microplate reader (HTS 7000 plus Bio Assay Reader, PerkinElmer Inc., USA). With least-square fitting analysis, the regression equation and regression curve of the relationship between percentage of live and dead bacteria as shown in green/red fluorescence ratios was obtained. The regression equation was used to calculate the percentage of live cells in each well of the 96-well plate.
Round body form and ten day old stationary phase (in brackets) B. burgdorferi culture was treated with 10 μg/mL drugs or their combinations for 7 days. Residual viable B. burgdorferi was calculated according to the regression equation and ratio of Green/Red fluorescence obtained by SYBR Green I/PI assay as described (Feng, Wang, Shi, et al., 2014). Direct microscopy counting was employed to rectify the results of the SYBR Green I/PI assay. […] Abbreviation: Dox, doxcycline; CefP, cefoperazone; DAP, daptomycin; CefM, cefmetazole; Scp, sulfachlorpyridazine; Art, artemisinin; Nft, nitrofurantoin.

For series [5], the system named is round body form of B. burgdorferi. The series is described as follows: SYBR Green I/PI assay on amoxicillin-induced round body form.
Series [6] relates to E. coli strains (W3110, UTI89, CFT073, KTE181). Kind of series: Rapid SYBR Green/PI antibiotic susceptibility test. The format is cell-based, Escherichia coli. The settings on record: for percent killed, sensitive strain W3110: ampicillin 100 μg/mL, others 25 μg/mL; for percent killed, resistant strain KTE181: ampicillin 100, trimethoprim 25, streptomycin 25 μg/mL; for cut-off (averaged proportion of killed cells) for resistant strains / cut-off (averaged proportion of killed cells) for susceptible strains: ampicillin, trimethoprim 5 μg/mL.

Setting [7] is: 50 μM, 7-day old stationary phase cells treated for 7 days.
The mark [8] stands for this setting: read-out: Live Cell % (residual viable B. burgdorferi).

Data on seven compounds can be found in patent publication US20170058314A1, “NOVEL METHODOLOGY FOR IDENTIFYING ANTI-PERSISTER ACTIVITY AND ANTIMICROBIAL SUSCEPTIBILITY FOR BORRELIA BURGDORFERI AND OTHER BACTERIA” (priority 2014, published 2017).

Read-outs that look alike come from different tables or passages of the source.

Regarding `CN(C)CCn1nnnc1SCC1=C(C(=O)O)N2C(=O)[C@@H](NC(=O)Cc3csc(N)n3)[C@H]2SC1` [Cefotiam], the “sensitivity of log phase / multiplying B. burgdorferi (words, FIG. 12)” value in series [1] is “very sensitive”. In series [2] (50 μM), the “Ratio of Green/Red fluorescence, Primary screening” value amounted to 6.41; the “Ratio of Green/Red fluorescence, Rescreening (first column)” value is 7.55; the “Ratio of Green/Red fluorescence, Rescreening (second column)” value was 6.21. In addition, the viability at 50 µM in series [2] turned out to be 43%. The viability at 50 µM in series [3] came to 42%.

For `CC[C@H]1OC(=O)[C@H](C)[C@@H](O[C@H]2C[C@@](C)(OC)[C@@H](O)[C@H](C)O2)[C@H](C)[C@@H](O[C@@H]2O[C@H](C)C[C@H](N(C)C)[C@H]2O)[C@](C)(OC)C[C@@H](C)C(=O)[C@H](C)[C@@H](O)[C@]1(C)O` [Clarithromycin], in series [2] (50 μM), the “Ratio of Green/Red fluorescence, Primary screening” value is on record as 7.70; the “Ratio of Green/Red fluorescence, Rescreening (first column)” value is 7.36; the “Ratio of Green/Red fluorescence, Rescreening (second column)” value is recorded as 7.59. Moreover, the viability at 50 µM in series [2] turned out to be 65%. Besides, the viability at 50 µM in series [3] was determined as 70%. In series [4] (read-out: Live Cell % (residual viable B. burgdorferi), ten-day-old stationary phase culture enriched with micro-colonies, 10 μg/mL each drug, 7 days), the viability at 10 µg/mL is 63%.

As to `CC1(C)S[C@@H]2[C@H](NC(=O)Cc3ccccc3)C(=O)N2[C@H]1C(=O)O` [Penicillin G], in series [5] (round body form, 50 μM, 7 days), the “Ratios of green/red fluorescence, Primary screening” value is listed as 6.33; the “Ratios of green/red fluorescence, Rescreening (first column)” value came to 6.51; the “Ratios of green/red fluorescence, Rescreening (second column)” value stood at 6.33; the “Residual viable cells (SYBR Green I/PI assay)” value is 38%. For the same compound, the “Residual viable cells (regression equation, SYBR Green I/PI assay)” value in series [2] (setting [7]) came out at 68%. Further, in series [2] (50 μM), the “Ratio of Green/Red fluorescence, Primary screening” value came out at 7.41; the “Ratio of Green/Red fluorescence, Rescreening (first column)” value stood at 7.68; the “Ratio of Green/Red fluorescence, Rescreening (second column)” value is listed as 7.92. In series [3] (setting [7]), the “Residual viable cells (epifluorescence microscope counting)” value worked out at 75%.

With `[H]/N=C(/N)N[C@H]1[C@H](O)[C@@H](O)[C@H](O[C@@H]2O[C@@H](C)[C@](O)(C=O)[C@H]2O[C@@H]2O[C@@H](CO)[C@H](O)[C@@H](O)[C@@H]2NC)[C@@H](N/C(N)=N\[H])[C@@H]1O` [Streptomycin], in series [2] (50 μM), the “Ratio of Green/Red fluorescence, Primary screening” value was 6.72; the “Ratio of Green/Red fluorescence, Rescreening (first column)” value came out at 6.93; the “Ratio of Green/Red fluorescence, Rescreening (second column)” value was 6.76. Besides, the viability at 50 µM in series [2] was determined as 45%. In addition, in series [6] (30 minutes), the “percent killed, sensitive strain W3110” value was 29% and the “percent killed, resistant strain KTE181” value is on record as 0%. Also, in series [6] (streptomycin 100 μg/mL), the “cut-off (averaged proportion of killed cells) for resistant strains” value is given as −0.1, the “cut-off (averaged proportion of killed cells) for susceptible strains” value is given as −0.6 and the “cut-off (averaged proportion of killed cells) for intermediate resistance” value is listed as −0.5.

Consider `CN(C)c1cc(NC(=O)CNC(C)(C)C)c(O)c2c1C[C@H]1C[C@H]3[C@H](N(C)C)C(O)=C(C(N)=O)C(=O)[C@@]3(O)C(O)=C1C2=O` [Tigecycline], for which, in series [2] (50 μM), the “Ratio of Green/Red fluorescence, Primary screening” value was 6.98; the “Ratio of Green/Red fluorescence, Rescreening (first column)” value is listed as 7.06; the “Ratio of Green/Red fluorescence, Rescreening (second column)” value was determined as 6.96. The viability at 50 µM in series [2] stood at 51%. In series [3], the viability at 50 µM was 58%. Moreover, the viability at 10 µg/mL in series [4] (setting [8]) was 67%.

Take `CN[C@H](CC(C)C)C(=O)N[C@H]1C(=O)N[C@@H](CC(N)=O)C(=O)N[C@H]2C(=O)N[C@H]3C(=O)N[C@H](C(=O)N[C@H](C(=O)O)c4cc(O)cc(O)c4-c4cc3ccc4O)[C@H](O)c3ccc(c(Cl)c3)Oc3cc2cc(c3O[C@@H]2O[C@H](CO)[C@@H](O)[C@H](O)[C@H]2O[C@H]2C[C@](C)(N)[C@H](O)[C@H](C)O2)Oc2ccc(cc2Cl)[C@H]1O` [Vancomycin]: the viability at 50 µM in series [5] (Borreliella burgdorferi, 168 h, read-out: Residual viable cells (SYBR Green I/PI assay)) was determined as 38%; in series [2], 38%; in series [3] it was 48%. In addition, the “Ratio of Green/Red fluorescence, Primary screening” value in series [2] (50 μM) was 6.65. Moreover, the “Ratio of Green/Red fluorescence, Rescreening (first column)” value in series [2] (50 μM) is reported as 6.58. The “Ratio of Green/Red fluorescence, Rescreening (second column)” value in series [2] (50 μM) came out at 6.37. Further, in series [4] (setting [8]), the viability at 10 µg/mL turned out to be 64%.

In the case of `COc1cc(Cc2cnc(N)nc2N)cc(OC)c1OC` [trimethoprim], in series [6] (30 minutes), the “percent killed, sensitive strain W3110” value was determined as 47% and the “percent killed, resistant strain KTE181” value was found to be 1%. In addition, the “percent killed, resistant strain CFT073” value in series [6] (30 minutes, trimethoprim 25 μg/mL) stood at 22%. Moreover, in series [6] (streptomycin 100 μg/mL), the “cut-off (averaged proportion of killed cells) for resistant strains” value is recorded as -0.2 and the “cut-off (averaged proportion of killed cells) for susceptible strains” value is −0.5.
